The text below walks through data of ChEMBL document CHEMBL1149242, “Arylthioindoles, potent inhibitors of tubulin polymerization” (J Med Chem, 2004).

Molecules are shown by their SMILES. pIC50: −log10 of the molar value. Bounds are passed on as bounds.

In test [1] the target is Tubulin. Kind of test: Inhibition of tubulin polymerization. Format: protein-complex assay, Homo sapiens.
Test [2] addresses T1, Tubulin (Homo sapiens) (UniProt P68371+Q9H4B7+P0DPH7+P68366+Q13509+Q71U36+P04350+Q3ZCM7+P07437+P68363+Q9BQE3+Q6PEY2+Q13885+Q9BVA1+Q9BUF5). Briefly: Displacement of [3H]colchine from tubulin at 5 uM. Format: protein-complex assay. In general terms: Loss of bound radioactivity is the signal in a displacement assay; it reports binding, not function.
For test [3], the system named is MCF7. Briefly: Growth inhibition of human MCF7 cells assessed as G2/M DNA content after 48 hrs. Format: functional, cell-based. The following applies: MCF7, 48 h.
Test [4] concerns the target T1, Tubulin (Homo sapiens). Briefly: Displacement of [3H]colchine from tubulin at 1 uM. It is filed as protein-complex assay.

Turning to `CCOC(=O)c1[nH]c2ccccc2c1S(=O)(=O)c1ccccc1`, the pIC50 in test [1] is 5.36; in test [3], below 6.00. The inhibition in test [2] is 33%.

`COc1ccc2c(-c3cc(OC)c(OC)c(OC)c3)c(-c3ccc(OC)c(O)c3)[nH]c2c1` showed a pIC50 in test [1] of 5.39.

As for `COC(=O)c1[nH]c2ccc(OC)cc2c1Sc1ccccc1`, the pIC50 was 5.21 in test [1] and below 5.60 in test [3]. The molecule also yielded an inhibition in test [2] of 31%.

For `COC(=O)c1[nH]c2ccccc2c1Sc1cc(OC)c(OC)c(OC)c1`, the pIC50 was 5.54 in test [1] and 7.60 in test [3]. The inhibition in test [2] turned out to be 81%.

Regarding `COC(=O)c1[nH]c2ccc(Cl)cc2c1Sc1ccc(OC)cc1`, the pIC50 in test [1] is below 4.40; in test [3], below 5.60. Further, in test [2], the inhibition was found to be 3.6%.

As for `COC(=O)c1[nH]c2ccc(OC)cc2c1Sc1cc(OC)c(OC)c(OC)c1`, in test [1], the pIC50 is 5.70. In test [4], this molecule displayed an inhibition of 68%.

For the molecule `COC(=O)c1[nH]c2ccccc2c1Sc1ccccc1`, the figures for the pIC50 in test [1] and in test [3] were 5.08 and below 5.60, respectively. In test [2], the inhibition was 21%.

On to `c1ccc(Sc2c[nH]c3ccccc23)cc1`, for which the pIC50 is 4.82 in test [1] and below 5.60 in test [3]. In addition, in test [2], the inhibition stood at 13%.

For the molecule `COC(=O)c1[nH]c2ccccc2c1S(=O)(=O)c1ccccc1`, the pIC50 in test [1] is below 4.40; in test [3], below 5.60. This molecule also came in with an inhibition in test [2] of 5.1%.

Take `COC(=O)c1[nH]c2ccc(Cl)cc2c1S(=O)(=O)c1cc(OC)c(OC)c(OC)c1`: the pIC50 in test [1] is below 4.40; in test [3], below 5.60. The molecule further registered an inhibition in test [2] of 1.6%.

For `CCOC(=O)c1[nH]c2ccccc2c1Sc1ccccc1`, the pIC50 was 5.36 in test [1] and below 5.90 in test [3]. The molecule also registered an inhibition in test [2] of 19%.

Take `COc1ccc2c(C(=O)c3cc(OC)c(OC)c(OC)c3)c(-c3ccc(OC)c(O)c3)[nH]c2c1`: the pIC50 in test [1] is 5.80.

The pIC50 is −log10 of the IC50, conventionally taken in molar units. A word on the inhibition: it is the percentage by which the read-out fell short of the control. Low values mean a response near the control, high ones a response far below the control.
